# What was measured:
# [1] = tested on: Hordeum vulgare (winter barley); assay: Post-emergence test/greenhouse, damage to winter barley (HORVW); type: in vivo
# Description: (§1) Post-Emergence Test/Greenhouse
# Test plants are grown under controlled conditions (temperature and light).
# (§2) Following the spray application, the plant containers are kept in the greenhouse under constant light and temperature conditions.
# (§3) After five days (5d) and/or three weeks (21d), the degree of damage to the plants is rated in % damage in comparison to the development of the untreated control.
# [2] = tested on: Triticum aestivum (winter wheat); assay: Post-emergence test/greenhouse, damage to winter wheat (TRZAW); type: in vivo
# Description: as §1
# Test plants are grown under controlled conditions (temperature and light). Once the plants have reached a height of 5 to 15 cm, the test compound or the combination of test compounds is applied by spraying such that the particular amounts of active compound desired are applied per unit area. The concentration of the spray liquor is chosen so that the particular amounts of active compound desired are applied in 500 litres of water/ha.
# as §2, §3
# • 0%=no effect (like untreated control) • 100%=total destruction.
# Unless indicated otherwise, the tests were carried out in the presence of 0.5% Renex 36. • a.i. denotes “active ingredient” (active compound). • HORVW denotes Hordeum vulgare (winter barley).
# TRZAW denotes Triticum aestivum (winter wheat).
# [3] = 50 g of ai/ha, without addition of Renex 36
structure (smiles),measurement,setting,value
CCS(=O)(=O)N(C(=O)COc1ccc(Cl)cc1Cl)c1cc(-n2c(=O)cc(C(F)(F)F)n(C)c2=O)c(F)cc1C#N [Ex. I-1],"degree of damage to the plants, HORVW 21d","[1]; 30 g of ai/ha, 0.5% Renex 36",20%
same,"degree of damage to the plants, HORVW 21d","[1]; 60 g of ai/ha, 0.5% Renex 36",40%
CCS(=O)(=O)N(C(=O)CCc1ccc(Cl)c(Cl)c1)c1cc(-n2c(=O)cc(C(F)(F)F)n(C)c2=O)c(F)cc1C#N [Ex. I-2],"degree of damage to the plants, HORVW 5d","[1]; 30 g of ai/ha, 0.5% Renex 36",40%
same,"degree of damage to the plants, HORVW 5d","[1]; 60 g of ai/ha, 0.5% Renex 36",60%
CCS(=O)(=O)N(C(=O)CCc1ccc(Cl)c(Cl)c1)c1cc(-n2ncc(=O)n(C)c2=O)c(F)cc1C#N [Ex. I-14],"degree of damage to the plants, HORVW 5d","[1]; 60 g of ai/ha, 0.5% Renex 36",30%
same,"degree of damage to the plants, TRZAW 5d","[2]; 60 g of ai/ha, 0.5% Renex 36",20%
CCS(=O)(=O)N(C(=O)CCc1cccc(OC)c1)c1cc(-n2c(=O)cc(C(F)(F)F)n(C)c2=O)c(F)cc1C#N [Ex. I-24],"degree of damage to the plants, HORVW 5d","[1]; 15 g of ai/ha, 0.5% Renex 36",40%
same,"degree of damage to the plants, HORVW 5d","[1]; 30 g of ai/ha, 0.5% Renex 36",60%
same,"degree of damage to the plants, HORVW 5d","[1]; 60 g of ai/ha, 0.5% Renex 36",70%
Cn1c(C(F)(F)F)cc(=O)n(-c2cc(N(C(=O)CCc3ccc(F)c(F)c3)S(C)(=O)=O)c(C#N)cc2F)c1=O [Ex. I-26],"degree of damage to the plants, HORVW 21d","[1]; 15 g of ai/ha, 0.5% Renex 36",10%
same,"degree of damage to the plants, HORVW 21d","[1]; 30 g of ai/ha, 0.5% Renex 36",20%
same,"degree of damage to the plants, HORVW 21d","[1]; 60 g of ai/ha, 0.5% Renex 36",40%
same,"degree of damage to the plants, TRZAW 21d","[2]; 30 g of ai/ha, 0.5% Renex 36",20%
same,"degree of damage to the plants, TRZAW 21d","[2]; 60 g of ai/ha, 0.5% Renex 36",30%
CCS(=O)(=O)N(C(=O)C(C)=Cc1ccccc1)c1cc(-n2c(=O)cc(C(F)(F)F)n(C)c2=O)c(F)cc1C#N [Ex. I-29],"degree of damage to the plants, HORVW 5d","[1]; 15 g of ai/ha, 0.5% Renex 36",10%
CCS(=O)(=O)N(C(=O)C=Cc1ccccc1Cl)c1cc(-n2c(=O)cc(C(F)(F)F)n(C)c2=O)c(F)cc1C#N [Ex. I-31],"degree of damage to the plants, HORVW 5d","[1]; 15 g of ai/ha, 0.5% Renex 36",30%
same,"degree of damage to the plants, HORVW 5d","[1]; 30 g of ai/ha, 0.5% Renex 36",40%
same,"degree of damage to the plants, HORVW 5d","[1]; 60 g of ai/ha, 0.5% Renex 36",50%
same,"degree of damage to the plants, TRZAW 5d","[2]; 30 g of ai/ha, 0.5% Renex 36",20%
same,"degree of damage to the plants, TRZAW 5d","[2]; 60 g of ai/ha, 0.5% Renex 36",20%
Cn1c(C(F)(F)F)cc(=O)n(-c2cc(N(C(=O)C=Cc3ccccc3Cl)S(C)(=O)=O)c(C#N)cc2F)c1=O [Ex. I-32],"degree of damage to the plants, HORVW 5d","[1]; 30 g of ai/ha, 0.5% Renex 36",25%
same,"degree of damage to the plants, HORVW 5d","[1]; 60 g of ai/ha, 0.5% Renex 36",40%
CCS(=O)(=O)N(C(=O)CCc1cccc(Cl)c1)c1cc(-n2c(=O)cc(C(F)(F)F)n(C)c2=O)c(F)cc1C#N [Ex. I-33],"degree of damage to the plants, HORVW 5d","[1]; 60 g of ai/ha, 0.5% Renex 36",40%
same,"degree of damage to the plants, HORVW 21d","[1]; 30 g of ai/ha, 0.5% Renex 36",15%
same,"degree of damage to the plants, HORVW 21d","[1]; 60 g of ai/ha, 0.5% Renex 36",20%
same,"degree of damage to the plants, TRZAW 5d","[2]; 60 g of ai/ha, 0.5% Renex 36",25%
same,"degree of damage to the plants, TRZAW 21d","[2]; 30 g of ai/ha, 0.5% Renex 36",10%
same,"degree of damage to the plants, TRZAW 21d","[2]; 60 g of ai/ha, 0.5% Renex 36",15%
CCS(=O)(=O)N(C(=O)CC(C)c1ccccc1)c1cc(-n2ncc(=O)n(C)c2=O)c(F)cc1C#N (stereo not shown) [Ex. I-40],"degree of damage to the plants, HORVW 5d","[1]; 60 g of ai/ha, 0.5% Renex 36",30%
same,"degree of damage to the plants, HORVW 21d","[1]; 60 g of ai/ha, 0.5% Renex 36",20%
same,"degree of damage to the plants, TRZAW 5d","[2]; 60 g of ai/ha, 0.5% Renex 36",20%
CCS(=O)(=O)N(C(=O)CCc1cccc(OC)c1)c1cc(-n2ncc(=O)n(C)c2=O)c(F)cc1C#N [Ex. I-41],"degree of damage to the plants, HORVW 5d","[1]; 15 g of ai/ha, 0.5% Renex 36",20%
same,"degree of damage to the plants, HORVW 5d","[1]; 30 g of ai/ha, 0.5% Renex 36",25%
CCS(=O)(=O)N(C(=O)CCc1ccc(F)c(F)c1)c1cc(-n2ncc(=O)n(C)c2=O)c(F)cc1C#N [Ex. I-42],"degree of damage to the plants, HORVW 5d","[1]; 15 g of ai/ha, 0.5% Renex 36",15%
same,"degree of damage to the plants, HORVW 5d","[1]; 30 g of ai/ha, 0.5% Renex 36",20%
same,"degree of damage to the plants, HORVW 5d","[1]; 60 g of ai/ha, 0.5% Renex 36",30%
same,"degree of damage to the plants, HORVW 21d","[1]; 60 g of ai/ha, 0.5% Renex 36",20%
CCS(=O)(=O)N(C(=O)CCc1ccc(F)cc1F)c1cc(-n2ncc(=O)n(C)c2=O)c(F)cc1C#N [Ex. I-43],"degree of damage to the plants, HORVW 21d","[1]; 15 g of ai/ha, without addition of Renex 36",10%
same,"degree of damage to the plants, TRZAW 5d","[2]; 15 g of ai/ha, 0.5% Renex 36",15%
same,"degree of damage to the plants, TRZAW 5d","[2]; 30 g of ai/ha, 0.5% Renex 36",15%
"CCCCCC(C)OC(=O)COc1ccc(Cl)c2cccnc12 (stereo not shown) [cloquintocet-mexyl, 1-methylhexyl 5-chloroquinolin-8-oxyacetate, reference compound]","degree of damage to the plants, HORVW 5d","[1]; 50 g of ai/ha, 0.5% Renex 36",0%
same,"degree of damage to the plants, HORVW 5d",[1]; [3],0%
same,"degree of damage to the plants, HORVW 21d","[1]; 50 g of ai/ha, 0.5% Renex 36",0%
same,"degree of damage to the plants, HORVW 21d",[1]; [3],0%
same,"degree of damage to the plants, TRZAW 5d","[2]; 50 g of ai/ha, 0.5% Renex 36",0%
same,"degree of damage to the plants, TRZAW 5d",[2]; [3],0%
same,"degree of damage to the plants, TRZAW 21d","[2]; 50 g of ai/ha, 0.5% Renex 36",0%
"CCOC(=O)C1=NOC(c2ccccc2)(c2ccccc2)C1 [isoxadifen, ethyl 4,5-dihydro-5,5-diphenyl-3-isoxazolecarboxylate, reference compound]","degree of damage to the plants, HORVW 5d","[1]; 50 g of ai/ha, 0.5% Renex 36",0%
same,"degree of damage to the plants, HORVW 5d",[1]; [3],0%
same,"degree of damage to the plants, HORVW 21d","[1]; 50 g of ai/ha, 0.5% Renex 36",0%
same,"degree of damage to the plants, HORVW 21d",[1]; [3],0%
same,"degree of damage to the plants, TRZAW 5d","[2]; 50 g of ai/ha, 0.5% Renex 36",0%
same,"degree of damage to the plants, TRZAW 5d",[2]; [3],0%
same,"degree of damage to the plants, TRZAW 21d","[2]; 50 g of ai/ha, 0.5% Renex 36",0%
"CCOC(=O)C1=NN(c2ccc(Cl)cc2Cl)C(C)(C(=O)OCC)C1 (stereo not shown) [mefenpyr-diethyl, diethyl 1-(2,4-dichlorophenyl)-4,5-dihydro-5-methyl-1H-pyrazole-3,5-dicarboxylate, reference compound]","degree of damage to the plants, HORVW 5d","[1]; 50 g of ai/ha, 0.5% Renex 36",0%
same,"degree of damage to the plants, HORVW 21d","[1]; 50 g of ai/ha, 0.5% Renex 36",0%
same,"degree of damage to the plants, TRZAW 5d","[2]; 50 g of ai/ha, 0.5% Renex 36",0%
same,"degree of damage to the plants, TRZAW 21d","[2]; 50 g of ai/ha, 0.5% Renex 36",0%

# Reference: patent publication US20050090396A1, “Herbicides based on substituted carboxylic acid anilides” (priority 2001, published 2005)
